Test results as given in article PMC4926073, “Absorption and Transport of Sea Cucumber Saponins from Apostichopus japonicus” (Marine Drugs, 2016).
Like-named read-outs stand apart in the source and are kept apart here.

What was measured:
[1] = In vivo pharmacokinetics in rats after oral administration; details: 20 mg/kg
[2] = Freeze-thaw, short-term and long-term stability in perfusate (Krebs-Ringer buffer solution); details: for Short-Term Stability, Accuracy (%): ambient temperature 24 h; for Long-Term Stability, Accuracy (%): ambient temperature 5 d
[3] = Freeze-thaw, short-term and long-term stability in rat plasma; details: for Short-Term Stability, Accuracy (%): ambient temperature 24 h; for Long-Term Stability, Accuracy (%): ambient temperature 5 d
Caco-2 cell monolayer [4] = details: human
in vitro = details: human; for recovery: Caco-2, Recovery (AP + BL chambers + cell monolayer)
[5] = Single-pass intestinal perfusion in rats; details: for concentration-dependent changes in permeability: 1, 5, 25 μg/mL
Procedure: (§1) Data were expressed as the means ± SD of three determinations: Peff = −Q ln [Cout/Cin]/2πrl(2)
(§2) In which Cin is the inlet concentration and Cout is the outlet concentration of compound, which is corrected for volume change in the segment using phenol red concentration in the inlet and outlet tubing. Q is the flow rate (0.2 mL/min), r is the rat intestinal radius (0.18 cm), and l is the length of the segment [32].
(§3) The rats were anaesthetized with an intra-abdominal injection of 10% chloral hydrate at a dose of 5 mL/kg. The enterocoelia of the rat was dissected by a 3–4 cm midline length, a segment of intestine about 10 cm long was separated and washed with saline. Silicone tubing was inserted into both sides of the segment of intestine and a peristaltic pump was connected to the proximal side of the tube. A pledget with saline was added onto the surgical area to avoid loss of fluid. The segment was cleared with 37 °C saline firstly, then blank K-R buffer solution was infused at the inlet and blank perfusate was collected at the outlet. The segment was infused with perfusate containing phenol red and different concentrations of sea cucumber saponins (1, 5, and 25 μg/mL) at a flow rate of 2 mL/min. Then the rate was reduced to 0.2 mL/min for 30 min until steady-state. Samples were obtained from the outlet of the segment every 15 min and stored at −20 °C for analysis. Different concentrations of sea cucumber saponins were perfused to highlight the absorption mechanism of sea cucumber saponins, which were investigated by the concentration-dependent change of the permeability values. 400 μg/mL verapamil was added to the perfusion solution containing 5 μg/mL sea cucumber saponins and 20 μg/mL phenol red to investigate whether the intestinal absorption of sea cucumber saponins were affected by P-gp.

in vivo [6] = details: male, Wistar, rat, iv, 20 mg/kg
Caco-2 cell monolayer [7] = assay: Transepithelial transport across Caco-2 cell monolayer
[8] = rat
Procedure: as §1, §2, §3

[9] = rat, in vivo, 20 mg/kg
in vivo [10] = details: rat
Procedure: as §1, §2, §3

[11] = rat; remark: listed apart in the source
[12] = nominal conc. 100.00 ng/mL, frozen at −20 °C 24 h, thawed at ambient temperature
[13] = range over freeze-thaw, short-term, long-term and both compounds

CO[C@@H]1[C@@H](O)[C@H](O[C@@H]2[C@@H](O)[C@H](O[C@H]3[C@H](O)[C@@H](O)[C@H](O[C@H]4[C@H](O[C@H]5CC[C@]6(C)C7=C[C@H](O)[C@]89C(=O)O[C@@](C)(CCCC(C)C)[C@@]8(O)CC[C@@]9(C)C7CCC6C5(C)C)OC[C@@H](OS(=O)(=O)O)[C@@H]4O)O[C@@H]3C)O[C@H](CO)[C@H]2O)O[C@H](CO)[C@H]1O (stereo partly shown) [Echinoside A]
bioavailability ([1]; male, Wistar, rat, in vivo): 59% | AUC ([1]; male, Wistar, rat, in vivo, po): 9270 ± 390 ng·h/mL | Cmax ([1]; male, Wistar, rat, in vivo, po): 910 ± 20 ng/mL | half-life ([1]; male, Wistar, rat, in vivo, po, T1/2, rat): 6.99 h | Tmax ([1]; male, Wistar, rat, in vivo, po, Tmax): ≤ 3 h | time at which detected in rat plasma after oral administration ([1]; oral): 1 h | T1/2 ([1]; rat, oral): 6.9 ± 0.32 h | max value of the concentration in the plasma ([1]; rat, oral): 910 ng/mL | Short-Term Stability, Accuracy (%) ([2]; nominal conc. 100.00 ng/mL): 90.8% | Long-Term Stability, Accuracy (%) ([2]; nominal conc. 100.00 ng/mL): 89.2% | Freeze-Thaw Stability, Accuracy (%) [2, 12]: 91.6% | Freeze-Thaw Stability, Accuracy (%) ([2]; nominal conc. 1000.00 ng/mL): 91.9% | Short-Term Stability, Accuracy (%) ([2]; nominal conc. 1000.00 ng/mL): 91.3% | Long-Term Stability, Accuracy (%) ([2]; nominal conc. 1000.00 ng/mL): 92.6% | Freeze-Thaw Stability, Accuracy (%) ([2]; nominal conc. 5000.00 ng/mL): 93.5% | Short-Term Stability, Accuracy (%) ([2]; nominal conc. 5000.00 ng/mL): 94.4% | Long-Term Stability, Accuracy (%) ([2]; nominal conc. 5000.00 ng/mL): 91.1% | stability in perfusate under three conditions [2, 13]: 88.2%–94.8 | Short-Term Stability, Accuracy (%) ([3]; nominal conc. 100.00 ng/mL): 95.4% | Long-Term Stability, Accuracy (%) ([3]; nominal conc. 100.00 ng/mL): 97.2% | Freeze-Thaw Stability, Accuracy (%) [3, 12]: 94.4% | Freeze-Thaw Stability, Accuracy (%) ([3]; nominal conc. 1000.00 ng/mL): 96.7% | Short-Term Stability, Accuracy (%) ([3]; nominal conc. 1000.00 ng/mL): 96.0% | Long-Term Stability, Accuracy (%) ([3]; nominal conc. 1000.00 ng/mL): 102.1% | Freeze-Thaw Stability, Accuracy (%) ([3]; nominal conc. 5000.00 ng/mL): 98.9% | Short-Term Stability, Accuracy (%) ([3]; nominal conc. 5000.00 ng/mL): 102.4% | Long-Term Stability, Accuracy (%) ([3]; nominal conc. 5000.00 ng/mL): 100.3% | stability in plasma under three conditions [3, 13]: 93.4%–102.4 | Papp AP-BL (Caco-2 cell monolayer [4]): 4.04 ± 0.39 × 10^−6, cm·s^−1 | Papp BL-AP (Caco-2 cell monolayer [4]): 5.33 ± 0.70 × 10^−6, cm·s^−1 | Papp A→B (in vitro; Caco-2): 3.96 ± 0.55 ×10⁻⁶ cm/s | Papp B→A (in vitro; Caco-2): 5.38 ± 0.81 ×10⁻⁶ cm/s | recovery (in vitro; time 60 min): 97.4 ± 2.76% | recovery (in vitro; time 90 min): 98.2 ± 1.97% | recovery (in vitro; time 120 min): 96.6 ± 2.33% | recovery (in vitro; time 150 min): 96.5 ± 2.04% | concentration-dependent changes in permeability ([5]; rat single-pass intestinal perfusion): not found | change in permeability when verapamil was added to the perfusate ([5]; rat single-pass intestinal perfusion, verapamil 400 μg/mL): No significant increase | Papp ([5]; rat, other: single-pass intestinal perfusion): 25 ×10⁻⁶ cm/s | AUC (in vivo [6]): 16400 ± 450 ng·h/mL | Cmax (in vivo [6]): 4000 ± 440 ng/mL | Tmax (in vivo [6]): 4.8 min | half-life (in vivo [6]): 8.52 ± 0.32 h | AP Chamber (%) recovered (Caco-2 cell monolayer [7]; time 60 min): 82.14 ± 2.85% | BL Chamber (%) recovered (Caco-2 cell monolayer [7]; time 60 min): 1.04 ± 0.12% | Cell Fraction (%) recovered (Caco-2 cell monolayer [7]; time 60 min): 14.22 ± 1.14% | AP Chamber (%) recovered (Caco-2 cell monolayer [7]; time 90 min): 81.63 ± 2.04% | BL Chamber (%) recovered (Caco-2 cell monolayer [7]; time 90 min): 1.51 ± 0.11% | Cell Fraction (%) recovered (Caco-2 cell monolayer [7]; time 90 min): 15.05 ± 1.29% | AP Chamber (%) recovered (Caco-2 cell monolayer [7]; time 120 min): 80.25 ± 2.67% | BL Chamber (%) recovered (Caco-2 cell monolayer [7]; time 120 min): 1.90 ± 0.20% | Cell Fraction (%) recovered (Caco-2 cell monolayer [7]; time 120 min): 14.43 ± 1.24% | AP Chamber (%) recovered (Caco-2 cell monolayer [7]; time 150 min): 79.38 ± 2.21% | BL Chamber (%) recovered (Caco-2 cell monolayer [7]; time 150 min): 2.36 ± 0.21% | Cell Fraction (%) recovered (Caco-2 cell monolayer [7]; time 150 min): 14.78 ± 0.92% | transport mechanism across Caco-2 monolayer (Caco-2 cell monolayer [7]; with and without P-gp inhibitor verapamil 100 μM): transported by passive diffusion without the participation of P-gp

C=C(C)CCCC1(C)OC(=O)C23CC=C4C(CCC5C4(C)CCC(OC4OCC(OC6OC(CO)C(O)C(OC7OC(CO)C(O)C(OC)C7O)C6O)C(O)C4OC4OC(C)C(OC6OCC(O)C(OC7OC(CO)C(O)C(OC)C7O)C6O)C(O)C4O)C5(C)C)C2(C)CC(=O)C13 (stereo not shown) [Holotoxin A1]
change in permeability when verapamil was added to the perfusate [8]: No significant increase | detection in the plasma after oral administration [9]: not detected | Papp (in vivo [10]): 2.67 ×10⁻⁶ cm/s | stability in plasma under three conditions [11]: 93.4%–102.4 | Papp AP-BL (Caco-2 cell monolayer [4]): <0.83 × 10^−6, cm·s^−1 | PappAB (Papp AP to BL) (Caco-2 cell monolayer [4]): less than 0.83 × 10^−6 cm·s^−1 | Papp A→B (in vitro; Caco-2): < 0.83 ×10⁻⁶ cm/s | Papp B→A (in vitro; Caco-2): < 0.83 ×10⁻⁶ cm/s | concentration-dependent changes in permeability [5]: not found | AUC (in vivo [6]): 6530 ± 150 ng·h/mL | Cmax (in vivo [6]): 2870 ± 170 ng/mL | Tmax (in vivo [6]): 4.8 min | half-life (in vivo [6]): 4.4 ± 0.06 h | AP Chamber (%) recovered (Caco-2 cell monolayer [7]; time 60 min): 97.66 ± 2.02% | AP Chamber (%) recovered (Caco-2 cell monolayer [7]; time 90 min): 96.56 ± 1.89% | AP Chamber (%) recovered (Caco-2 cell monolayer [7]; time 120 min): 95.46 ± 1.72% | AP Chamber (%) recovered (Caco-2 cell monolayer [7]; time 150 min): 95.90 ± 2.27% | BL Chamber (%) recovered (Caco-2 cell monolayer [7]; time 150 min): <0.2% | Cell Fraction (%) recovered (Caco-2 cell monolayer [7]; time 150 min): <0.2%

CC(C)NCC(O)COc1cccc2ccccc12 (stereo not shown) [propranolol, reference compound]
Papp A→B at 150 min, 20 µM (in vitro; Caco-2): 26.1 ± 1.2 ×10⁻⁶ cm/s
